Data as given in patent US20260232578A1, “COMPOSITIONS AND METHODS FOR TRANSMUCOSAL ABSORPTION” (Tonix Pharma Limited, priority 2012, published 2026).
Structures can show the parent of a compound that is named as a salt. Where two headings read alike, the source gives them in different places.

Legend:
[1] = 25° C.; cited from earlier work
in vivo [2] = conditions: female, beagle, dog, 0.14 mg/kg
Protocol: The protocol was designed as outlined in Table 23.
The method requires a lithium heparinized plasma sample volume of 200 μl. The extraction is a liquid liquid extraction with hexane, and the extracts are injected using an HPLC system and an […] (Applied Biosystems) for the MS/MS detection, with a “Onyx monolithic Phenomenex C18 100×3.0 mm” column.
Concentrations of the samples are calculated using Watson® 7.2.0.03 directly from chromatograms after automatic integration by Analyst® 1.5.1 and expressed as ng/mL. Mean plasma concentrations will be calculated (when calculable, i.e. n>2) using individual concentrations and will be expressed with the corresponding standard deviation value and variation coefficients (when calculable, i.e. n>3) (with CV(%)=(SD/mean)×100). The individual plasma concentrations are tabulated for each dog and scheduled sampling time. Concentrations below the LLOQ are designated as “BLQ.” All BLQ concentrations are substituted by zero for calculation of the descriptive statistics of the concentrations.
Pharmacokinetic analysis is carried out using […]® (Version 4.3 (Thermo Electron Corporation)). An independent model (non compartmental analysis) is used. All BLQ values in the absorption phase are substituted by zero, except for BLQ values between evaluable concentrations, which are treated as missing values, before the calculation of the pharmacokinetic variables. The terminal BLQ values are ignored. The following pharmacokinetic parameters are calculated:
5 non-naive female dogs are used, each dog receiving the test substance by oral administration via nasogastric tube to the stomach (NG) administration, sublingual administration (SL), and by intravenous (IV) administration. There is a “wash-out” period of at least two weeks between each type of administration. Blood samples are drawn as follows:
A single NG dose of 0.14 mg/kg (under a volume of 5 ml/kg and a solution concentration of 0.028 mg/mL) is administered.
After a wash-out period of at least 2 weeks, dogs are sedated using propofol (6.5 mg/kg IV). They will be then given a single sublingual dose of 0.14 mg/kg (under a volume of 0.056 mL/kg and a solution concentration of 2.5 mg/mL).
After a wash-out period of at least 2 weeks, dogs are given a single IV dose of 0.14 mg/kg (under a volume of 1 mL/kg, bolus of approximately 30 sec, and a solution concentration of 0.14 mg/mL).
Blood sampling was designed to minimize animal suffering and to ensure the quality of the biological samples, and was adapted from basic procedures commonly used in studies performed in dogs. Serial blood samples (1 tube of approximately 5 mL) are collected from a jugular vein using vacuum tubes containing lithium heparin. After sealing each tube, the blood samples are manually agitated and stored on ice until centrifugation (within 30 minutes of sampling). The samples are centrifuged at 1500 g, at 4° C., for 10 minutes. The entire resultant plasma obtained from each tube is immediately transferred to suitably labeled polypropylene tubes (3 aliquots of plasma of at least 500 μl each), which are stored upright at approximately −80° C. and protected from light until bioanalysis.
The dogs are fasted overnight before each administration, and food is given to the dogs 4 hours after each treatment. […] In each of the three routes, a potassium phosphate buffer (pH 7.4) is used as the vehicle.
As referred to in Example 4, a study was designed in order to assess the effects of the compositions and methods of the invention. […] The pharmacokinetic parameters were then calculated. A summary of the study design is as follows:
Blood was collected in a fasted condition for all three routes of administration. […] Briefly, the method involved liquid-liquid extraction with hexane. The extracts were injected using an HPLC system and an API4000® (Applied Biosystems) for the MS/MS detection, with an “Onyx monolithic Phenomenex C18 100×3.0 mm” column.

[3] = Protocol: The (KH2PO4) solution was prepared according to the current USP (USP 34) (Table 25). Briefly, 50 mL of 0.2 M monobasic potassium phosphate (KH2PO4) was mixed with 39.1 mL of 0.2 M NaOH, and water was added to bring the solution to a final volume of 200 mL. During the test, the change in the pH of the solution also was measured for each addition.
in vivo [4] = conditions: beagle, dog; for AUC(0-t): AUCt
Protocol: Each dog was sampled at pre-dose before and after Propofol (when possible) and at 5, 10 and 20 minutes post-dose.

[5] = iv, Cyclobenzaprine plasma concentration
[6] = po, Cyclobenzaprine plasma concentration

CN(C)CCC=C1c2ccccc2C=Cc2ccccc21 [cyclobenzaprine HCl]
acid dissociation constant (pKa) for the amine group [1]: approximately 8.5
AUC(0-inf) (in vivo [2]; iv, AUCinf): 44.9 ± 4.15 ng·h/mL
AUC(0-t) (in vivo [2]; iv, AUCt): 43.5 ng·h/mL
clearance (in vivo [2]; iv, Cl): 52.3 mL/min/kg
concentration at 10 min (in vivo [2]; [5]): 21.1 ng/mL
concentration at 20 min (in vivo [2]; [5]): 17.3 ng/mL
concentration at 0.5 h (in vivo [2]; [5]): 14.3 ng/mL
concentration at 1 h (in vivo [2]; [5]): 9 ng/mL
concentration at 2 h (in vivo [2]; [5]): 6.5 ng/mL
concentration at 3 h (in vivo [2]; [5]): 4.43 ng/mL
concentration at 24 h (in vivo [2]; [5]): 0.1 ng/mL
Cl (Cl/F) (in vivo [2]; po): 1206 mL/min/kg
Kel (in vivo [2]; po): 0.4782 h⁻¹
CL/F (in vivo [2]; po, Cl (Cl/F)): 1210 mL/min/kg
concentration at 6 h (in vivo [2]; [6]): 0.15 ng/mL
concentration at 8 h (in vivo [2]; [6]): 0.126 ng/mL
concentration at 10 h (in vivo [2]; [6]): 0.112 ng/mL
Vd/F (in vivo [2]; po, Vd (Vd/F)): 151 L/kg
half-life (in vivo [2]; po, t1/2): 86.9 min
pH value ([3]; 10 g added to 100 mL Phosphate Buffer Solution pH 7.4): 6.43
pH value ([3]; 10 g added to 100 mL purified water): 3.31
pH value ([3]; 15 g added to 100 mL Phosphate Buffer Solution pH 7.4): 6.29
pH value ([3]; 15 g added to 100 mL purified water): 3.24
pH value ([3]; 20 g added to 100 mL Phosphate Buffer Solution pH 7.4): 6.21
pH value ([3]; 20 g added to 100 mL purified water): 3.16
pH value ([3]; 25 g added to 100 mL Phosphate Buffer Solution pH 7.4): 6.15
pH value ([3]; 25 g added to 100 mL purified water): 3.11
pH value ([3]; 30 g added to 100 mL Phosphate Buffer Solution pH 7.4): 6.10
pH value ([3]; 30 g added to 100 mL purified water): 3.07
solubility state in solution ([3]; […] at 7.4 containing K2HPO4 or KH2PO4): close to its saturation point
AUCt (in vivo [4]): 22.78 ng·h/mL
Bioavailability F % IV without propofol vs sublingual with propofol (in vivo [4]): 197.0%
Cmax (in vivo [4]): 92.23 ng/mL
Tmax (in vivo [4]): 10 min
AUC(0-t) (in vivo [4]): 17.4 ng·h/mL
Cmax (in vivo [4]; Cmax): 75.6 ng/mL
AUCt (in vivo [4]; iv): 11.56 ng·h/mL
Cmax (in vivo [4]; iv): 40.10 ng/mL
Tmax (in vivo [4]; iv): 5 min
AUC(0-t) (in vivo [4]; iv): 7.67 ng·h/mL
Cmax (in vivo [4]; iv, Cmax): 26.8 ng/mL
